Among the test systems are Candida glabrata 090902; Nocardia asteroides; Candida albicans; Escherichia coli; Pseudomonas putida; Saccharomyces cerevisiae; Serratia marcescens; Escherichia coli 117; Pseudomonas aeruginosa; Shigella dysenteriae; Staphylococcus aureus 10; Staphylococcus aureus 37; Escherichia coli W160-37; Staphylococcus aureus.
Holding throughout (assay): ≥ marks a high value that may be exact or a test limit, other limits are often not marked, values filed in µg/mL are converted to µM
The subject of test [1] is Enterobacter cloacae CGMCC 1.57.
Test [2] has as its system Enterococcus faecalis 981.
Test [3] concerns Psychrobacter faecalis X29.
Test [4] has as its system Staphylococcus aureus ATCC 25923.
Test [5] has as its system Bacillus subtilis KCTC 1021.
In test [6] the test system is Klebsiella pneumoniae ATCC 10031.
Test [7] relates to Micrococcus luteus ATCC 4698.
Test [8] deals with Proteus mirabilis ATCC 25933.
Test [9] has as its system Pseudomonas aeruginosa ATCC 9027.
For test [10], the system named is Salmonella enterica subsp. enterica serovar Typhimurium ATCC 14028.
Test [11] concerns Shigella dysenteriae ATCC 9752.
In test [12] the test system is Staphylococcus epidermidis ATCC 12228.
For test [13], the system named is Candida albicans ATCC 90028.
Test [14] concerns Candida parapsilosis ATCC 22019.
For test [15], the system named is Enterobacter cloacae ATCC 13047.
Test [16] relates to Klebsiella pneumoniae ATCC 700603.
The subject of test [17] is Pseudomonas aeruginosa ATCC 27853.
The subject of test [18] is Pseudomonas aeruginosa CMCCB 1010.
Test [19] concerns Staphylococcus aureus A170.
The test system of test [20] is Staphylococcus epidermidis.

Values after ≈ are worked out from the molar mass of the structure shown.

The record followed here is DBAASP.

With `CC[C@H](C)[C@H](NC(=O)[C@H](CC(C)C)NC(=O)CNC(=O)[C@H](CO)NC(=O)[C@@H](NC(=O)[C@@H](N)Cc1ccccc1)[C@@H](C)CC)C(=O)NCC(=O)NCC(=O)N[C@@H](CC(C)C)C(=O)N[C@@H](CCSC)C(=O)N[C@@H](CCCCN)C(=O)N[C@@H](C)C(=O)N[C@@H](CC(C)C)C(N)=O` [FISGLIGGLMKAL], the MIC is no less than 100 µM with Candida glabrata 090902; no less than 400 µM in test [1]; no less than 50 µM in test [2]; 25 µM (≈ 33 µg/mL) in the test on Nocardia asteroides; no less than 200 µM in test [3]; 25 µM (≈ 33 µg/mL) in [4].

Consider `CC[C@H](C)[C@H](NC(=O)CN)C(=O)N[C@@H](CCSC)C(=O)N[C@@H](CO)C(=O)N[C@H](C(=O)N[C@H](C(=O)N[C@@H](CCCCN)C(=O)N[C@@H](CC(=O)O)C(=O)N[C@H](C(=O)N[C@@H](C)C(=O)N[C@@H](CCCCN)C(=O)N[C@H](C(=O)N[C@@H](C)C(=O)N[C@@H](C)C(=O)N[C@@H](CCCCN)C(=O)N[C@@H](CCC(=O)O)C(=O)N[C@@H](C)C(=O)N[C@@H](C)C(=O)N[C@@H](CCCCN)C(=O)NCC(=O)N[C@@H](C)C(=O)N[C@@H](CC(C)C)C(=O)N[C@@H](CO)C(=O)N[C@H](C(=O)N[C@@H](CC(C)C)C(=O)N[C@@H](CO)C(=O)N[C@H]1CSSC[C@@H](C(=O)O)NC(=O)[C@H]([C@@H](C)O)NC(=O)[C@H](CCCCN)NC(=O)[C@H](C)NC(=O)[C@H](CC(C)C)NC(=O)[C@H](CCCCN)NC1=O)[C@@H](C)O)[C@@H](C)O)C(C)C)C(C)C)[C@@H](C)CC` [GIMSIVKDVAKTAAKEAAKGALSTLSCKLAKTC], for which the MIC is 3.02 µM (≈ 9.99 µg/mL) in test [5]; greater than 60.4 µM against Candida albicans; 22.7 µM (≈ 75 µg/mL) in the test on Escherichia coli; 7.56 µM (≈ 25 µg/mL) in test [6]; 0.755 µM (≈ 2.5 µg/mL) in [7]; no less than 60.4 µM in [8]. For the same compound, the minimum inhibitory concentration (MIC) in test [9] was 15.1 µM (≈ 50 µg/mL); in the test on Pseudomonas putida, 15.1 µM (≈ 50 µg/mL); in the test with Saccharomyces cerevisiae, no less than 60.4 µM; in [10], 45.3 µM (≈ 150 µg/mL); against Serratia marcescens, no less than 60.4 µM; in test [11], 7.56 µM (≈ 25 µg/mL). Further, the minimal inhibitory concentration (MIC) in [12] stood at 3.02 µM (≈ 9.99 µg/mL).

As for `CC[C@H](C)[C@H](N)C(=O)N[C@@H](CC(N)=O)C(=O)N[C@@H](CC(C)C)C(=O)N[C@@H](CCCCN)C(=O)N[C@@H](C)C(=O)N[C@H](C(=O)N[C@@H](C)C(=O)N1CCC[C@H]1C(=O)N[C@@H](CC(C)C)C(=O)N[C@@H](C)C(=O)N[C@@H](CCCCN)C(=O)N[C@@H](CCCCN)C(=O)N[C@@H](CC(C)C)C(=O)N[C@@H](CC(C)C)C(=O)O)[C@@H](C)CC` [INLKAIAPLAKKLL], the minimal inhibitory concentration (MIC) in [13] is 13.3 µM (≈ 20 µg/mL); in [14], 13.3 µM (≈ 20 µg/mL); in test [15], 26.6 µM (≈ 40 µg/mL); in the test with Escherichia coli 117, no less than 53.1 µM; in [16] it was 13.3 µM (≈ 20 µg/mL); in test [17], 6.64 µM (≈ 10 µg/mL). Also, the minimal inhibitory concentration (MIC) in [18] is 6.64 µM (≈ 10 µg/mL); in the test on Pseudomonas aeruginosa, 53.1 µM (≈ 80 µg/mL); in the test on Shigella dysenteriae, 6.64 µM (≈ 10 µg/mL); with Staphylococcus aureus 10, 26.6 µM (≈ 40 µg/mL); in the test with Staphylococcus aureus 37, no less than 53.1 µM; in test [4], 53.1 µM (≈ 80 µg/mL).

As to `CC[C@H](C)[C@H](NC(=O)[C@@H]1CCCN1C(=O)[C@H](CC(C)C)NC(=O)[C@@H](N)CC(C)C)C(=O)N[C@H](C(=O)NCC(=O)N[C@@H](CC(N)=O)C(=O)N[C@@H](CC(C)C)C(=O)N[C@@H](CC(C)C)C(=O)N[C@@H](CCCCN)C(=O)N[C@@H](C)C(=O)N[C@@H](CC(C)C)C(=O)N[C@@H](CC(C)C)C(=O)O)C(C)C` [LLPIVGNLLKALL], the MIC in test [19] worked out at 7.26 µM (≈ 10 µg/mL); in [20] it was 14.5 µM (≈ 20 µg/mL).

Regarding `CC[C@H](C)[C@H](NC(=O)[C@H](CCCCN)NC(=O)[C@H](CCCCN)NC(=O)[C@H](Cc1c[nH]c2ccccc12)NC(=O)[C@H](CCCCN)NC(=O)[C@H](CO)NC(=O)[C@H](CC(C)C)NC(=O)[C@H](Cc1ccccc1)NC(=O)[C@@H](NC(=O)[C@H](CCCCN)NC(=O)[C@H](CC(C)C)NC(=O)[C@H](CC(C)C)NC(=O)[C@H](CCCCN)NC(=O)[C@@H]1CCCN1)[C@@H](C)O)C(=O)NCC(=O)O` [PKLLKTFLSKWKKIG], the MIC was 22 µM (≈ 39.3 µg/mL) in the test with Escherichia coli W160-37 and 17 µM (≈ 30.4 µg/mL) against Staphylococcus aureus.

One may read the MIC as the lowest concentration found to suppress growth.
